Laboratory results taken from patent US8309558B2, “Compounds for the treatment of hepatitis C” (Bristol-Myers Squibb Company, priority 2008, dated 2012).

Legend:
[1] = target: T1, HCV NS5B RdRp genotype 1b (Hepatitis C virus genotype 1b, UniProt Q9WMX2); experiment: Standard HCV NS5B RdRp enzyme assay; type: biochemical; details: Table 1b; HCV NS5B RdRp genotype 1b; read-out: IC50
T1 construct: The protein was expressed with an 18 amino acid C-terminal truncation to enhance the solubility; made in house; host or cells: E. coli BL21(DE3), pET21a vector
T1 sequence (Q9WMX2 2420-2992): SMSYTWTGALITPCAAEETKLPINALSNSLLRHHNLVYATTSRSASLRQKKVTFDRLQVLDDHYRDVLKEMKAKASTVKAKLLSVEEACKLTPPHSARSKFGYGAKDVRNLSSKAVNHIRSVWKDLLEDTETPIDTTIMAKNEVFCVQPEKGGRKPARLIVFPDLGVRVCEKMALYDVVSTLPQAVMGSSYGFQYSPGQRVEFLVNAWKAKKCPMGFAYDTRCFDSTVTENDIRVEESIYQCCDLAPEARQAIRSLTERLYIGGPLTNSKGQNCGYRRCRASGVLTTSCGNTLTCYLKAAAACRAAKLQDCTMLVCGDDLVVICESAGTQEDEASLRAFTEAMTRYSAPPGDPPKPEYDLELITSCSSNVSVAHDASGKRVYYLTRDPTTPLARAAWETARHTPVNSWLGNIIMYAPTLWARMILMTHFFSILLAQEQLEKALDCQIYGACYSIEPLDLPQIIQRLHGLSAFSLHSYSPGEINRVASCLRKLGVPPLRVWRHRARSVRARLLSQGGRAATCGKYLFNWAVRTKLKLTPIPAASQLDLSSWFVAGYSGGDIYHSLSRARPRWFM
Procedure, shortened: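 Radiometric SPA measuring 3H-UMP incorporation on polyA/biotin-oligo-dT12 (6 nM/180 nM), 0.29 μM total UTP. Enzyme: NS5B 1b lacking last 18 residues, 28 nM final, 30° C for 60 min in 20 mM Hepes pH 7.5, 2.5 mM MgCl2, 2% DMSO. IC50 from seven-point curves.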

[2] = system: HCV replicon cells; experiment: HCV replicon FRET / luciferase assay (96-well plates); type: cell-based; details: Hepatitis C virus, Table 1b; HCV replicon; read-out: EC50
Procedure, shortened: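 Percent activity is background-subtracted signal relative to untreated cell wells, with background taken from maximal protease-inhibitor wells. Cytotoxicity is Alamar blue fluorescence relative to controls. Replicon inhibition was read by NS3 FRET peptide cleavage (340/490 nm) or luciferase.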

Row | SMILES | IC50 [1] | EC50 [2]
1 | CNC(=O)c1c(-c2ccc(F)cc2)oc2cc([N+](=O)[O-])c(-c3cc(C(=O)NC4(c5ccccc5)CC4)ccc3F)cc12 | < 0.25 µM | < 0.25 µM
2 | CNC(=O)c1c(-c2ccc(F)cc2)oc2ccc(-c3ccc(-c4cccc(CO)c4)c(C(=O)NCC(C)C)c3)cc12 | < 0.25 µM | < 0.25 µM
3 | CNC(=O)c1c(-c2ccc(F)cc2)oc2ccc(-c3ccc(-c4cnn(C)c4)c(C(=O)NCC(C)C)c3)cc12 | < 0.25 µM | < 0.25 µM
4 | CNC(=O)c1c(-c2ccc(F)cc2)oc2ccc(-c3ccc(-c4cncc5ccccc45)c(C(=O)NCC(C)C)c3)cc12 | 0.25 to 1 µM | < 0.25 µM
5 | CCC(O)COc1ccc(C(=O)NCC(C)C)cc1-c1ccc2oc(-c3ccc(F)cc3)c(C(=O)NC)c2c1 (stereo not drawn) | 0.25 to 1 µM | 0.25 to 1 µM
6 | CNC(=O)c1c(-c2ccc(F)cc2)oc2ccc(-c3cc(C(=O)NCC(C)C)ccc3OCC(C)O)cc12 (stereo not drawn) | < 0.25 µM | < 0.25 µM
7 | CNC(=O)c1c(-c2ccc(F)cc2)oc2ccc(-c3cc(C(=O)NCC(C)C)ccc3OCCC3CCCCN3)cc12 (stereo not drawn) | < 0.25 µM | < 0.25 µM
8 | CNC(=O)c1c(-c2ccc(F)cc2)oc2ccc(-c3cc(C(=O)NCC(C)C)ccc3OCc3ccncc3)cc12 | < 0.25 µM | < 0.25 µM
9 | CNC(=O)c1c(-c2ccc(F)cc2)oc2ccc(-c3cc(C(=O)NCC(C)C)ccc3OCC3CCCN3C(=O)OC(C)(C)C)cc12 (stereo not drawn) | > 10 µM | 1 to 10 µM
10 | CNC(=O)c1c(-c2ccc(F)cc2)oc2ccc(-c3cc(C(=O)NCC(C)C)ccc3OCC3CCCN3)cc12 (stereo not drawn) | < 0.25 µM | 0.25 to 1 µM
11 | CNC(=O)c1c(-c2ccc(F)cc2)oc2cc(N(CCO)S(C)(=O)=O)c(-c3cccc(C(=O)NC(C)(C)C(=O)Nc4cc(C)no4)c3)cc12 | < 0.25 µM | < 0.25 µM
12 | CNC(=O)c1c(-c2ccc(F)cc2)oc2ccc(-c3cc(OC)cc(C(=O)NCC(C)C)c3)cc12 | 0.25 to 1 µM | 0.25 to 1 µM
13 | CNC(=O)c1c(-c2ccc(F)cc2)oc2ccc(-c3cc(C(=O)NCC(C)C)ccc3OCCN)cc12 | < 0.25 µM | < 0.25 µM
14 | CNC(=O)c1c(-c2ccc(F)cc2)oc2ccc(-c3cc(C(=O)NCC(C)C)cc(-c4ccccc4)c3)cc12 | > 10 µM | > 10 µM
15 | CNC(=O)c1c(-c2ccc(F)cc2)oc2ccc(-c3cc(C(=O)NC(C)(C)C)ccc3C)cc12 | < 0.25 µM | < 0.25 µM
16 | CNC(=O)c1c(-c2ccc(F)cc2)oc2cc([N+](=O)[O-])c(-c3cc(C(=O)NC4(c5ccccc5)CC4)ccc3OC)cc12 | < 0.25 µM | 0.25 to 1 µM
17 | CNC(=O)c1c(-c2ccc(F)cc2)oc2ccc(-c3cc(C(=O)NC4(C#N)CC4)ccc3C)cc12 | < 0.25 µM | < 0.25 µM
18 | CNC(=O)c1c(-c2ccc(F)cc2)oc2cc([N+](=O)[O-])c(-c3ccc(OC)c(C(=O)NC4(c5ccccc5)CC4)c3)cc12 | < 0.25 µM | < 0.25 µM
19 | CNC(=O)c1c(-c2ccc(F)cc2)oc2ccc(-c3cc(N)ccc3C)cc12 | 1 to 10 µM | 1 to 10 µM
20 | CNC(=O)c1c(-c2ccc(F)cc2)oc2cc(N)c(-c3cc(C(=O)NC4(c5ccccc5)CC4)ccc3OC)cc12 | < 0.25 µM | < 0.25 µM
21 | CNC(=O)c1c(-c2ccc(F)cc2)oc2ccc(-c3cc(NC(=O)C4(c5ccccc5)CC4)ccc3C)cc12 | 1 to 10 µM | 0.25 to 1 µM
22 | CNC(=O)c1c(-c2ccc(F)cc2)oc2ccc(-c3cc(C(=O)NC4(C(=O)OC)CC4)ccc3C)cc12 | < 0.25 µM | < 0.25 µM
23 | CNC(=O)c1c(-c2ccc(F)cc2)oc2ccc(-c3cc(C(=O)NC4(c5nnc(C)[nH]5)CC4)ccc3C)cc12 | < 0.25 µM | < 0.25 µM
24 | CNC(=O)c1c(-c2ccc(F)cc2)oc2cc(N)c(-c3cc(C(=O)NC4(c5ccccc5)CC4)ccc3C)cc12 | < 0.25 µM | < 0.25 µM
25 | CNC(=O)c1c(-c2ccc(F)cc2)oc2ccc(-c3cccc(C(=O)NC(C)(C)c4nc(C)no4)c3)cc12 | < 0.25 µM | < 0.25 µM
26 | CNC(=O)c1c(-c2ccc(F)cc2)oc2ccc(-c3cc(C(=O)NC4(C(=O)O)CC4)ccc3C)cc12 | < 0.25 µM | 1 to 10 µM
27 | CNC(=O)c1c(-c2ccc(F)cc2)oc2ccc(-c3cc(C(=O)NC4(CO)CC4)ccc3C)cc12 | 1 to 10 µM | 1 to 10 µM
28 | CNC(=O)c1c(-c2ccc(F)cc2)oc2ccc(-c3cc(C(=O)NC(C)(C)CN4CCOCC4)ccc3C)cc12 | < 0.25 µM | < 0.25 µM
29 | CNC(=O)c1c(-c2ccc(F)cc2)oc2ccc(-c3cc(C(=O)NCC(C)C)ccc3OC(F)F)cc12 | < 0.25 µM | < 0.25 µM
30 | CNC(=O)c1c(-c2ccc(F)cc2)oc2ccc(-c3cc(C(=O)NC(C)(C)C4CC4)ccc3C)cc12 | < 0.25 µM | < 0.25 µM
